Data reported in patent US5229381A, “Substituted azetidinones as anti-inflammatory and antidegenerative agents” (Merck & Co., Inc., priority 1991, dated 1993).

target: T1, human polymorphonuclear leukocyte elastase (Homo sapiens, UniProt P08246); experiment: Inhibition of human polymorphonuclear leukocyte (granulocyte) elastase via hydrolysis of Boc-AAPAN or Boc-AAPVN; type: biochemical; conditions: Table I; 2 min after time zero; crude PMN extract, pH 7.5
T1 construct: Crude extract of human polymorphonuclear leukocytes (PMN) containing elastase activity; endogenous in cells; host or cells: human polymorphonuclear leukocytes (crude extract)
T1 sequence (P08246 30-247 limits assumed): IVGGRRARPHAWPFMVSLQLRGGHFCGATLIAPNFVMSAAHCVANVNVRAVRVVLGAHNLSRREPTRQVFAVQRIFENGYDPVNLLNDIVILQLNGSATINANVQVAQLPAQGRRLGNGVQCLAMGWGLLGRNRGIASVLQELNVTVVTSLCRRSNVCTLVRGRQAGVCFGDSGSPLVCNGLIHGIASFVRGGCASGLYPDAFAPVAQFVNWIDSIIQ
Procedure: Enzyme Assays for the Inhibition of Human Polymorphonuclear Leukocyte Elastase Via Hydrolysis of N-t-Boc-alanyl-alanyl-prolylalanine-p-nitroanilide (Boc-AAPAN) or N-t-Boc-alanyl-prolylvaline-p-nitroanilide (Boc-AAPVN) Reagent:
0.05M TES (N-tris[hydroxymethyl]methyl-2-amino-ethanesulfonic acid) Buffer, pH 7.5.
0.2 mM Boc-AAPAN or Boc-AAPVN.
To prepare substrate, the solid was first dissolved in 10.0 ml DMSO. Buffer at pH 7.5 was then added to a final volume of 100 ml.
Crude extract of human polymorphonuclear leukocytes (PMN) containing elastase activity.
Inhibitors (azetidinones) to be tested dissolved in DMSO just before use.
To 1.0 ml of 0.2 mM Boc-AAPAN in a cuvette, 0.01-0.1 ml of DMSO with or without inhibitor was added. After mixing, a measurement was taken at 410 mμ to detect any spontaneous hydrolysis due to presence of test compound. 0.05 Milliliters of PMN extract was then added and the ΔOD/min at 410 mμ was measured and recorded. Beckman model 35 spectrophotometer was used.
Results were also expressed as Ki, the micromolar concentration of the inhibitor (μM) giving 50% of the control enzyme activity; or as ^k obs/I which is the second order rate constant in per mole per second for inactivation of the enzyme.
The elastase activity in the crude PMN extract may vary from one preparation to another. A control of each new batch is run, and the volume added in the assay procedure is adjusted according to activity.

SMILES	ID50, effective dosage for 50% inhibition of the enzyme activity two minutes after time zero
COC1C(=O)N(C(C)=O)C1C(=O)OCc1ccccc1 (centres unmarked) [Table I: H; CH3 O; COOCH2 C6 H5; COCH3]	2000 µg/mL
CCC1C(=O)NC1OC(C)=O (centres unmarked) [Table I: H; C2 H5; OCOCH3; H]	15000 µg/mL
CC(=O)N1C(=O)CC1[S+](C)[O-] (centres unmarked) [Table I: H; H; SOCH3; COCH3, 1-acetyl-4-methylsulfinylazetidine-2-one]	10000 µg/mL

same assay, conditions: Table I; read-out: Ki, concentration of the inhibitor giving 50% of the control enzyme activity

SMILES	Ki
CCC1C(=O)N(C(=O)CCC(=O)O)C1OC(C)=O (centres unmarked)	1.43 µM
CC[C@H]1C(=O)N(C(C)=O)[C@@H]1Oc1ccccc1 (relative stereo) [Table I: H; C2 H5 (trans); OPh; COCH3]	4.3 µM
CC[C@H]1C(=O)N(S(=O)(=O)c2ccc(C)cc2)[C@H]1C(=O)OCc1ccc(C(=O)O)cc1 (relative stereo)	4.2 µM
CC[C@H]1C(=O)N(C(=O)c2ccccc2)[C@H]1OC(C)=O (relative stereo) [Table I: H; C2 H5 (cis); OCOCH3; COPh]	0.14 µM
CC[C@H]1C(=O)N(S(=O)(=O)c2ccc(C)cc2)[C@H]1C(=O)N(C)CC(=O)O (relative stereo)	22 µM
CC[C@H]1C(=O)N(S(=O)(=O)c2ccc(C)cc2)[C@H]1C(=O)N1CCCC1 (relative stereo)	27.7 µM

same assay, conditions: Table IV, (per mole per second)

SMILES	kobs/I, second order rate constant of inactivation of the enzyme
CCCC1(CCC)C(=O)N(C(=O)NC(C)c2ccccc2)C1Oc1ccc(C(=O)O)cc1 (single isomer, unassigned) [Table IV: C3 H7; C3 H7; O-(4-COOHPh); drawing 47 (higher Rf isomer)]	4324 M⁻¹ s⁻¹

same assay, conditions: pH 7.5, Table I; read-out: kobs/I, second order rate constant of inactivation of the enzyme

SMILES	kinact/KI
CCOC(=O)N1C(=O)[C@H](CC)[C@@H]1OCC(=O)O (relative stereo)	796 M⁻¹ s⁻¹

same assay, conditions: pH 7.5, Table II, (per mole per second); read-out: kobs/I, second order rate constant of inactivation of the enzyme

SMILES	kinact/KI
CCC1(CC)C(=O)N(C(=O)NCC2CCCCC2)C1Oc1ccc(C(=O)O)cc1 (centres unmarked)	1420 M⁻¹ s⁻¹
CCCC1(CC)C(=O)N(C(=O)NCc2cccc(C(F)(F)F)c2)C1Oc1ccc(C(=O)O)cc1 (centres unmarked)	55000 M⁻¹ s⁻¹
CCC1(C)C(=O)N(C(=O)NCc2cc(C)c(C(=O)O)c(C)c2)C1Oc1ccc(C(N)=O)cc1 (centres unmarked)	30000 M⁻¹ s⁻¹
CCC1(CC)C(=O)N(C(=O)NCc2ccc(C(C)=O)cc2)C1Oc1ccc(C(C)=O)cc1 (centres unmarked)	5920 M⁻¹ s⁻¹
CCCCCCCCCNC(=O)N1C(=O)C(CC)(CC)C1Oc1ccc(C(=O)O)cc1 (centres unmarked)	8300 M⁻¹ s⁻¹
CCC1(C)C(=O)N(C(=O)NC(C)c2ccccc2)C1Oc1ccc(C(=O)O)cc1 (centres unmarked)	15000 M⁻¹ s⁻¹
CCC1(CC)C(=O)N(C(=O)NCc2ccccc2)C1Oc1ccc([N+](=O)[O-])cc1 (centres unmarked)	6850 M⁻¹ s⁻¹
CCC1C(=O)N(C(=O)NCc2ccccc2)C1c1ccc(C(=O)O)cc1 (centres unmarked) [Table II: C2 H5; H; Ph-4-COOH; CH2 Ph]	900 M⁻¹ s⁻¹
CCC1(CC)C(=O)N(C(=O)NCc2ccccc2)C1Oc1ccc(CC(N)C(=O)O)cc1 (centres unmarked) [Table II: C2 H5; C2 H5; drawing 36; CH2 Ph]	2540 M⁻¹ s⁻¹
CCC1(CC)C(=O)N(C(=O)NCc2ccccc2)C1Oc1cccc(C(=O)NCc2ccccc2)c1 (centres unmarked)	3050 M⁻¹ s⁻¹
CCC1(CC)C(=O)N(C(=O)NCc2ccco2)C1Oc1ccc(C(=O)O)cc1 (centres unmarked)	5220 M⁻¹ s⁻¹
CCC1(COC)C(=O)N(C(=O)NCc2ccccc2)C1Oc1ccc(C(=O)O)cc1 (centres unmarked)	1900 M⁻¹ s⁻¹
CCC1(C)C(=O)N(C(=O)NCC(C)c2ccccc2)C1Oc1ccc(C(=O)O)cc1 (centres unmarked)	2550 M⁻¹ s⁻¹
CCC1(COC)C(=O)N(C(=O)NCc2ccc(-c3ccccc3)cc2)C1Oc1ccc(C(=O)O)cc1 (centres unmarked)	44500 M⁻¹ s⁻¹
CCC1(CC)C(=O)N(C(=O)NCc2ccccc2)C1Oc1ccc([N+](C)(C)C)cc1 (centres unmarked)	1700 M⁻¹ s⁻¹
CCCC1(CCC)C(=O)N(C(=O)NCc2ccccc2)C1Oc1ccc(C(=O)O)cc1 (centres unmarked)	2500 M⁻¹ s⁻¹
CCC1(CC)C(=O)N(C(=O)NCc2ccc([N+](=O)[O-])cc2)C1Oc1ccc(C(=O)O)cc1 (centres unmarked)	5080 M⁻¹ s⁻¹
CCC1C(=O)N(C(=O)Nc2ccc(C(=O)O)cc2)C1Oc1ccc(C(=O)O)cc1 (centres unmarked)	13600 M⁻¹ s⁻¹
CCC1(CC)C(=O)N(C(=O)NCc2ccc(C(=O)O)cc2)C1Oc1ccccc1 (centres unmarked)	1500 M⁻¹ s⁻¹
CC[C@@]1(C)C(=O)N(C(=O)NCc2ccccc2)[C@H]1Oc1ccc(C(=O)O)cc1 [(3R,4S)-1-(benzylaminocarbonyl)-3-ethyl-3-methyl-4-(4-carboxy)phenoxyazetidin-2-one]	2000 M⁻¹ s⁻¹
CCC1(CC)C(=O)N(C(=O)NC(C)c2ccc(C3CCCCC3)c(Cl)c2)C1Oc1ccc(C(=O)O)cc1 (centres unmarked)	20800 M⁻¹ s⁻¹
CCC1(CC)C(=O)N(C(=O)NCCCc2ccccc2)C1Oc1ccc(C(=O)O)cc1 (centres unmarked)	4540 M⁻¹ s⁻¹
CCCC(NC(=O)N1C(=O)C(CC)(COC)C1Oc1ccc(C(=O)O)cc1)c1ccccc1 (centres unmarked)	75000 M⁻¹ s⁻¹
CCC1(CC)C(=O)N(C(=O)NCc2ccc(OC)cc2)C1Oc1ccc(C(=O)O)cc1 (centres unmarked)	5160 M⁻¹ s⁻¹
CCCC1(CC)C(=O)N(C(=O)NC(CC)c2ccccc2)C1Oc1ccc(C(=O)CCC(=O)O)cc1 (centres unmarked)	87000 M⁻¹ s⁻¹
CCC1(COC)C(=O)N(C(=O)NCc2ccc3ccccc3c2)C1Oc1ccc(C(=O)O)cc1 (centres unmarked)	50000 M⁻¹ s⁻¹
CCC1(CC)C(=O)N(C(=O)NCc2ccccc2)C1n1ccnc1 (centres unmarked)	200 M⁻¹ s⁻¹
CCC1(Cc2ccccc2)C(=O)N(C(=O)NCc2ccccc2)C1Oc1ccc(C(=O)O)cc1 (centres unmarked)	87 M⁻¹ s⁻¹
CCC1(CC)C(=O)N(C(=O)NCc2ccccc2)C1Oc1ccc(NC(=O)CCC(=O)O)cc1 (centres unmarked)	2570 M⁻¹ s⁻¹

same assay, conditions: pH 7.5, Table III, (per mole per second); read-out: kobs/I, second order rate constant of inactivation of the enzyme

SMILES	kinact/KI
CCC1(CC)C(=O)N(C(=O)NCc2ccc(C(C)=O)cc2)C1Oc1ccc(C(=O)O)cc1 (centres unmarked) [Table III: O-(4-COOHPh); CH2 Ph(4-COMe)]	5920 M⁻¹ s⁻¹
CCC1(CC)C(=O)N(C(=O)NCc2ccc(-c3ccccc3)cc2)C1Oc1ccc(CC(=O)O)cc1 (centres unmarked)	28900 M⁻¹ s⁻¹
CCC1(CC)C(=O)N(C(=O)NCc2ccc(OCc3ccccc3)cc2)C1Oc1ccc(C(=O)O)cc1 (centres unmarked)	12000 M⁻¹ s⁻¹
CCC1(CC)C(=O)N(C(=O)NCc2ccc(-c3ccccc3)cc2)C1OCC(=O)O (centres unmarked) [Table III: OCH2 COOH; CH2 Ph-4-Ph]	2900 M⁻¹ s⁻¹
CCC1(CC)C(=O)N(C(=O)NCc2ccccc2)C1n1cnc2ccccc21 (centres unmarked) [Table III: 1-benzimidazolyl; CH2 Ph]	69 M⁻¹ s⁻¹
CCC1(CC)C(=O)N(C(=O)NCc2cccc(C)c2)C1Oc1ccc(C(=O)O)cc1 (centres unmarked) [Table III: O-(4-COOHPh); CH2 Ph(3-CH3)]	6930 M⁻¹ s⁻¹
CCC1(CC)C(=O)N(C(=O)NCc2ccc3c(c2)CCCC3)C1Oc1ccc(C(=O)O)cc1 (centres unmarked)	62900 M⁻¹ s⁻¹
CCC1(CC)C(=O)N(C(=O)NCc2ccccc2)C1n1c(=O)cc[nH]c1=O (centres unmarked) [Table III: C00042; CH2 Ph]	351 M⁻¹ s⁻¹
CCC1(CC)C(=O)N(C(=O)NCC2CCC3CCCCC3C2)C1Oc1ccc(C(=O)O)cc1 (centres unmarked) [Table III: O-(4-COOHPh); drawing 41]	4160 M⁻¹ s⁻¹
CCC1(CC)C(=O)N(C(=O)NCc2ccc(C(=O)N3CCOCC3)cc2)C1Oc1ccc(C(=O)O)cc1 (centres unmarked) [Table III: O-(4-COOHPh); drawing 43]	2040 M⁻¹ s⁻¹
CCC1(CC)C(=O)N(C(=O)NCc2ccc(Cc3ccccc3)cc2)C1Oc1ccc(C(=O)O)cc1 (centres unmarked)	8030 M⁻¹ s⁻¹
CCC1(CC)C(=O)N(C(=O)NCc2ccc(-c3ccccc3)cc2)C1OCC(N)=O (centres unmarked) [Table III: OCH2 CONH2; CH2Ph-4-Ph]	51800 M⁻¹ s⁻¹
CCC1(CC)C(=O)N(C(=O)NCc2ccc(C)c(C)c2)C1Oc1ccc(C(=O)O)cc1 (centres unmarked)	20600 M⁻¹ s⁻¹
CCC1(CC)C(=O)N(C(=O)NCc2ccc(-c3ccccc3)cc2)C1n1cncn1 (centres unmarked) [Table III: 1-triazolyl; CH2 Ph-4-Ph]	2140 M⁻¹ s⁻¹

same assay, conditions: pH 7.5, Table IV, (per mole per second); read-out: kobs/I, second order rate constant of inactivation of the enzyme

SMILES	kinact/KI
CCC1C(=O)N(C(=O)N(CC)Cc2ccccc2)C1Oc1ccc(C(=O)O)cc1 (centres unmarked)	83000 M⁻¹ s⁻¹

same assay, conditions: pH 7.5, Table V, (per mole per second); read-out: kobs/I, second order rate constant of inactivation of the enzyme

SMILES	kinact/KI
CCC[C@@H](NC(=O)N1C(=O)C(CC)(CC)[C@@H]1Oc1ccc(CC(=O)O)cc1)c1ccccc1 [Table V: 4-CH2 COOH; nPr; H]	227000 M⁻¹ s⁻¹
CC[C@@H](NC(=O)N1C(=O)C(CC)(CC)[C@@H]1Oc1ccc(C(=O)O)cc1)c1ccccc1 [Table V: 4-COOH; Et; H]	92000 M⁻¹ s⁻¹

same assay, conditions: pH 7.5, Table VI, (per mole per second); read-out: kobs/I, second order rate constant of inactivation of the enzyme

SMILES	kinact/KI
CCC1(CC)C(=O)N(C(=O)N[C@H](C)c2ccccc2)[C@H]1Oc1ccc(CCC(=O)O)cc1 [Table VI: 4-(CH2)2 COOH; Me; H]	9480 M⁻¹ s⁻¹
CCC1(CC)C(=O)N(C(=O)N[C@H](C)c2ccc(-c3ccccc3Cl)cc2)[C@H]1Oc1ccc(C(=O)O)cc1 [Table VI: 4-COOH; Me; 4-(2'-ClPh)]	245000 M⁻¹ s⁻¹
CC[C@@H](NC(=O)N1C(=O)C(CC)(CC)[C@@H]1Oc1ccc(C(=O)CCC(=O)O)cc1)c1ccccc1 [Table VI: 4-CO(CH2)2 COOH; Et; H]	272000 M⁻¹ s⁻¹
CC[C@@H](NC(=O)N1C(=O)C(CC)(CC)[C@@H]1Oc1ccc(CC(=O)O)cc1)c1ccccc1 [Table VI: 4-CH2 COOH; Et; H, (4S)-3,3-diethyl-1-[(R)-α-ethylbenzyl-aminocarbonyl]-4-[(4-carboxymethyl)phenoxy]azetidin-2-one]	126000 M⁻¹ s⁻¹
CCC[C@@H](NC(=O)N1C(=O)C(CC)(CC)[C@@H]1Oc1ccc(CC(=O)O)cc1)c1ccc2c(c1)OCO2 [(4S)-3,3-diethyl-1-[(R)-α-n-propyl-(3,4-methylenedioxy)-benzylaminocarbonyl]-4[(4-carboxymethyl)-phenoxy]azetidin-2-one]	867000 M⁻¹ s⁻¹

same assay, conditions: pH 7.5, read-out: kobs/I, second order rate constant of inactivation of the enzyme

SMILES	kinact/KI
CCC1C(=O)N(C(=O)CCC(=O)O)C1OC(C)=O (centres unmarked)	2250 M⁻¹ s⁻¹
CC[C@H]1C(=O)N(C(C)=O)[C@@H]1Oc1ccccc1 (relative stereo) [Table I: H; C2 H5 (trans); OPh; COCH3]	5270 M⁻¹ s⁻¹
CCCC1(C)C(=O)N(C(=O)NCc2ccccc2)C1Oc1ccc(C(=O)O)cc1 (centres unmarked)	1900 M⁻¹ s⁻¹
CC[C@H]1C(=O)N(S(=O)(=O)c2ccc(C)cc2)[C@H]1C(=O)OCc1ccc(C(=O)O)cc1 (relative stereo)	299 M⁻¹ s⁻¹
CC[C@H]1C(=O)N(S(=O)(=O)c2ccc(C)cc2)[C@H]1C(=O)N(C)CC(=O)O (relative stereo)	165 M⁻¹ s⁻¹
CC[C@H]1C(=O)N(S(=O)(=O)c2ccc(C)cc2)[C@H]1C(=O)N1CCCC1 (relative stereo)	541 M⁻¹ s⁻¹
